Experimental data: ChEMBL document CHEMBL5653631, “A Potent and Selective ULK1 Inhibitor Suppresses Autophagy and Sensitizes Cancer Cells to Nutrient Stress” (iScience, 2018)
One block for each compound: values may come before it.

Experiments:
[1] = target: Glycogen synthase kinase-3 alpha (Homo sapiens) (UniProt P49840); experiment: Inhibition of human recombinant GSK3A at 500 nM in presence of ATP by radiometric assay relative to control
[2] = target: T1, Inhibitor of nuclear factor kappa-B kinase subunit beta (Homo sapiens) (UniProt O14920); experiment: Inhibition of human recombinant IKKb at 500 nM in presence of ATP by radiometric assay relative to control
T1 sequence (whole entry): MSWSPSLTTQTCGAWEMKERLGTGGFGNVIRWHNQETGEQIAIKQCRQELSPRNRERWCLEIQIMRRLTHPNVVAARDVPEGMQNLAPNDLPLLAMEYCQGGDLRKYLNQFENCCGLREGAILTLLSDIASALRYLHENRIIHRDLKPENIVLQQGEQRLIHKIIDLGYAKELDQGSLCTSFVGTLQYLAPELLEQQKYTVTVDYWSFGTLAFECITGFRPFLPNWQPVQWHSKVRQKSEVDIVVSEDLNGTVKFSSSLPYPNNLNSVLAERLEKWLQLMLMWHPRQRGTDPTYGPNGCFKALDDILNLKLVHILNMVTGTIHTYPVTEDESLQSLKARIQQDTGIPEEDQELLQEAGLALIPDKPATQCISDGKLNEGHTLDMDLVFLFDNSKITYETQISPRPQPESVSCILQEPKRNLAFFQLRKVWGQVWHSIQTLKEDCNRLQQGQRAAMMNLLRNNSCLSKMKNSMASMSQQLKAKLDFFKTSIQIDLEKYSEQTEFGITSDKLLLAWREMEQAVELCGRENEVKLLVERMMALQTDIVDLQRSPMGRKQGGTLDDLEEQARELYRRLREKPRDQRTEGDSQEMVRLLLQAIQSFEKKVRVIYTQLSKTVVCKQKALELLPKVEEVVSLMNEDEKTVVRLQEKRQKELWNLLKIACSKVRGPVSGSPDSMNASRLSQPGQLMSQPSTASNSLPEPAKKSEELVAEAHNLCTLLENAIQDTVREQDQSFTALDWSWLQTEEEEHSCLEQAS

[3] = target: Serine/threonine-protein kinase N1 (Homo sapiens) (UniProt Q16512); experiment: Inhibition of human recombinant PKN1 at 15 nM related to control ULK1
[4] = target: Serine/threonine-protein kinase 35 (Homo sapiens) (UniProt Q8TDR2); experiment: Inhibition of human recombinant CLIK1 at 15 nM in presence of ATP by radiometric assay relative to control
[5] = target: Protein kinase C theta type (Homo sapiens) (UniProt Q04759); experiment: Inhibition of human recombinant PKCt at 15 nM related to control ULK1
[6] = target: STE20-like serine/threonine-protein kinase (Homo sapiens) (UniProt Q9H2G2); experiment: Inhibition of human recombinant SLK at 40 nM in presence of ATP by radiometric assay relative to control
[7] = target: T2, Eukaryotic translation initiation factor 2-alpha kinase 3 (Homo sapiens) (UniProt Q9NZJ5); experiment: Inhibition of human recombinant PEK at 40 nM in presence of ATP by radiometric assay relative to control
T2 sequence (whole entry): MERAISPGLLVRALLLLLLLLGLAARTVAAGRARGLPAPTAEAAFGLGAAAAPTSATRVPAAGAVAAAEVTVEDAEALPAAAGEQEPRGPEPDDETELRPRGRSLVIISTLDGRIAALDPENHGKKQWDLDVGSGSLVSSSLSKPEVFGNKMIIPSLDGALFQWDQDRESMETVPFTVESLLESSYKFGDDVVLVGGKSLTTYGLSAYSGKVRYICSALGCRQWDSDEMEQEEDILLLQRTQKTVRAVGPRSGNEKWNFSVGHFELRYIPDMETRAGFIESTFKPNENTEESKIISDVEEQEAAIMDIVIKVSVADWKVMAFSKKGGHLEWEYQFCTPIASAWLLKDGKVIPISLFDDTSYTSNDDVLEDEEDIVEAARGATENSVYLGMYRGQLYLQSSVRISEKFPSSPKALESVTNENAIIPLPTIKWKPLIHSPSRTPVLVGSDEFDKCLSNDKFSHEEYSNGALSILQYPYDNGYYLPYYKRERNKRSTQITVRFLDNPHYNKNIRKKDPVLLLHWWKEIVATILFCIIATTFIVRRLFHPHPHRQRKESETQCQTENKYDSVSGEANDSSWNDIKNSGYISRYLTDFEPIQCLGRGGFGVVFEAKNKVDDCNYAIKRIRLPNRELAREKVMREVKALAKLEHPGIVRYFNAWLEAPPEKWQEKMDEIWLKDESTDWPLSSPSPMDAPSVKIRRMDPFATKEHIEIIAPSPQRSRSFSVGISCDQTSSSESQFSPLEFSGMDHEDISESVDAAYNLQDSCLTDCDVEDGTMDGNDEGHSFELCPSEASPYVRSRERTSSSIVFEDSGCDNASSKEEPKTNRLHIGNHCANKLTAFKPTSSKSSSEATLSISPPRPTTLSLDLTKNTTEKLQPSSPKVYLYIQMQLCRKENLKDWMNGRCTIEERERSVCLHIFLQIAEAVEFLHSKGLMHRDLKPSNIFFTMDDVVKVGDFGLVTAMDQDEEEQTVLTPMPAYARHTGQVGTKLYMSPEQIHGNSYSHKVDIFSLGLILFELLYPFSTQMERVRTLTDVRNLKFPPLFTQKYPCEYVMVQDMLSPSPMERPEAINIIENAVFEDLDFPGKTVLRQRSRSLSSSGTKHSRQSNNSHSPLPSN

[8] = target: T3, Receptor-interacting serine/threonine-protein kinase 1 (Homo sapiens) (UniProt Q13546); experiment: Inhibition of human recombinant RIPK1 at 40 nM in presence of ATP by radiometric assay relative to control
T3 sequence (whole entry): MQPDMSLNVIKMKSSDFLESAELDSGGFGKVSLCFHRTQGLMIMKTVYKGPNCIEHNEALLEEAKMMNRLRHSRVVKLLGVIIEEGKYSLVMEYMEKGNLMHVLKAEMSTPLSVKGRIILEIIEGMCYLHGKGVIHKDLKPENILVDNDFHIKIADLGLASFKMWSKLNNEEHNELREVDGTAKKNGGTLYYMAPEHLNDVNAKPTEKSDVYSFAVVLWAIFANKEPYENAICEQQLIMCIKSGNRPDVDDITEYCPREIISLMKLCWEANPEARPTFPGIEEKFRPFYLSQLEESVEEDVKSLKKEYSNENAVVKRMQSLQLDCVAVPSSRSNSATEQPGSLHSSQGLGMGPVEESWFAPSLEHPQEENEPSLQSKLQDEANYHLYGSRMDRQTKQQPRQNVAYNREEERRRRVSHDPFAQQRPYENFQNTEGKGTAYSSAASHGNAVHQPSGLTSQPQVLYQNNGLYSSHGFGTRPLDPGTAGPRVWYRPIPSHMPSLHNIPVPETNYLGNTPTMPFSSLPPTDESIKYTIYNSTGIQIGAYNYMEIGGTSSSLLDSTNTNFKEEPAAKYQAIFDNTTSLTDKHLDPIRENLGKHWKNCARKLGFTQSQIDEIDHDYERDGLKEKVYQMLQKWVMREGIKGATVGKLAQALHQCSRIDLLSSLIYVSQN

Chain of STE20-like serine/threonine-protein kinase (Homo sapiens) (Q9H2G2 whole entry, looked up): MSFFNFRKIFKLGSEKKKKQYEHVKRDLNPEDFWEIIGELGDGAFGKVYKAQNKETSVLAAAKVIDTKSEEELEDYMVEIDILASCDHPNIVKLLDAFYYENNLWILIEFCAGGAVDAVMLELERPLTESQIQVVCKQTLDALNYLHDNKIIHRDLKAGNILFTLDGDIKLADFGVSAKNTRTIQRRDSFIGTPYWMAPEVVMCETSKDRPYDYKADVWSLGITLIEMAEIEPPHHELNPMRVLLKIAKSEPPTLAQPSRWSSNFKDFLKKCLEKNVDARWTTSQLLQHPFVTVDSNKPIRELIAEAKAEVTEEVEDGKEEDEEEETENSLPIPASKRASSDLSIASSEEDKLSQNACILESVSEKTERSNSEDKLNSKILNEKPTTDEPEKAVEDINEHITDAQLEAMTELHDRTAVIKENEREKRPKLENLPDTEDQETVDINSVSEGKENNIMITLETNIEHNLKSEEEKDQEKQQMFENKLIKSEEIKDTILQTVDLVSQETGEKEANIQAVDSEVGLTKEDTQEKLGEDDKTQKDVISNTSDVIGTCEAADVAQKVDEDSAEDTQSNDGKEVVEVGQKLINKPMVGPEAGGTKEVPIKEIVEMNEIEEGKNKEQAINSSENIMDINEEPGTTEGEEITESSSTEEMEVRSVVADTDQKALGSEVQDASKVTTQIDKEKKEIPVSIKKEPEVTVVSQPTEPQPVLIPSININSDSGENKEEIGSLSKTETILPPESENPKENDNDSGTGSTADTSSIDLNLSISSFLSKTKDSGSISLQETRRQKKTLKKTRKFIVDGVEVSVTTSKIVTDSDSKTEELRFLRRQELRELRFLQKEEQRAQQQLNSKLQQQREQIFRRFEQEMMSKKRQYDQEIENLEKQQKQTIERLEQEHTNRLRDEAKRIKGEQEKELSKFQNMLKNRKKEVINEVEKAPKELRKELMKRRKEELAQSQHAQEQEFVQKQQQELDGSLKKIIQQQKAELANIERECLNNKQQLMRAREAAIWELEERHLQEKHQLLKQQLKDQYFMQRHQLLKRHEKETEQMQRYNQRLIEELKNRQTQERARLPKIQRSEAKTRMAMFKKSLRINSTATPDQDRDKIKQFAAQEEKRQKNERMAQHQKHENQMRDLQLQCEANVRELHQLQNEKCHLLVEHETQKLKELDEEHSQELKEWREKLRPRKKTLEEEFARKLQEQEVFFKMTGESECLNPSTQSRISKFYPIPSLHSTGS
Chain of Serine/threonine-protein kinase 35 (Homo sapiens) (Q8TDR2 whole entry): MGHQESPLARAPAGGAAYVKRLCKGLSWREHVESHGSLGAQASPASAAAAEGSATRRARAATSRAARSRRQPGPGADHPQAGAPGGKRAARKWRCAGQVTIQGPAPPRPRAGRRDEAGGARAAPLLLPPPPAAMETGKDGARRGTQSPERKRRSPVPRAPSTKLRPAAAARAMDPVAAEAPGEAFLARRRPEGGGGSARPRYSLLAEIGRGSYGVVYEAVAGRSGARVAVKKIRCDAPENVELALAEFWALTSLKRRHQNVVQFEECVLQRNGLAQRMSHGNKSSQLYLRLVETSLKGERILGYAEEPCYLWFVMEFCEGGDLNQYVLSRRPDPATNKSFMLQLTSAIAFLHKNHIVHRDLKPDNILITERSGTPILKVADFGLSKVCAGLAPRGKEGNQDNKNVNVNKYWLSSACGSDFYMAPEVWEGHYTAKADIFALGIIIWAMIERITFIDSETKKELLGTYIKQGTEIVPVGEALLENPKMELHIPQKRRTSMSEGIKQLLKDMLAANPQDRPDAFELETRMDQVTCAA
Chain of Glycogen synthase kinase-3 alpha (Homo sapiens) (P49840 2-483 limits assumed): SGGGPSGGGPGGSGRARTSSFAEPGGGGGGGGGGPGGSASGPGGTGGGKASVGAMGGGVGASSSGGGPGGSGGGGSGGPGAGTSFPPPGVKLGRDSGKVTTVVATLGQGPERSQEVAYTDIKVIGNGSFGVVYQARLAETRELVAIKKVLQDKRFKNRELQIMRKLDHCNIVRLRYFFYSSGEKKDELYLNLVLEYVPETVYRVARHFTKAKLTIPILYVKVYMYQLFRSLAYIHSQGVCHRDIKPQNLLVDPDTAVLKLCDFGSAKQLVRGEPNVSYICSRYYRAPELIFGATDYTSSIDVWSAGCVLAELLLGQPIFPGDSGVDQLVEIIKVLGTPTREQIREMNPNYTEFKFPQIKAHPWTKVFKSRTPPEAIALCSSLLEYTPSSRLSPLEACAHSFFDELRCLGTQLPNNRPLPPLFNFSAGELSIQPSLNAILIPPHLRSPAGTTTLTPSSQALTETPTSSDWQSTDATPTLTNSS
Chain of Serine/threonine-protein kinase N1 (Homo sapiens) (Q16512 2-942 limits assumed): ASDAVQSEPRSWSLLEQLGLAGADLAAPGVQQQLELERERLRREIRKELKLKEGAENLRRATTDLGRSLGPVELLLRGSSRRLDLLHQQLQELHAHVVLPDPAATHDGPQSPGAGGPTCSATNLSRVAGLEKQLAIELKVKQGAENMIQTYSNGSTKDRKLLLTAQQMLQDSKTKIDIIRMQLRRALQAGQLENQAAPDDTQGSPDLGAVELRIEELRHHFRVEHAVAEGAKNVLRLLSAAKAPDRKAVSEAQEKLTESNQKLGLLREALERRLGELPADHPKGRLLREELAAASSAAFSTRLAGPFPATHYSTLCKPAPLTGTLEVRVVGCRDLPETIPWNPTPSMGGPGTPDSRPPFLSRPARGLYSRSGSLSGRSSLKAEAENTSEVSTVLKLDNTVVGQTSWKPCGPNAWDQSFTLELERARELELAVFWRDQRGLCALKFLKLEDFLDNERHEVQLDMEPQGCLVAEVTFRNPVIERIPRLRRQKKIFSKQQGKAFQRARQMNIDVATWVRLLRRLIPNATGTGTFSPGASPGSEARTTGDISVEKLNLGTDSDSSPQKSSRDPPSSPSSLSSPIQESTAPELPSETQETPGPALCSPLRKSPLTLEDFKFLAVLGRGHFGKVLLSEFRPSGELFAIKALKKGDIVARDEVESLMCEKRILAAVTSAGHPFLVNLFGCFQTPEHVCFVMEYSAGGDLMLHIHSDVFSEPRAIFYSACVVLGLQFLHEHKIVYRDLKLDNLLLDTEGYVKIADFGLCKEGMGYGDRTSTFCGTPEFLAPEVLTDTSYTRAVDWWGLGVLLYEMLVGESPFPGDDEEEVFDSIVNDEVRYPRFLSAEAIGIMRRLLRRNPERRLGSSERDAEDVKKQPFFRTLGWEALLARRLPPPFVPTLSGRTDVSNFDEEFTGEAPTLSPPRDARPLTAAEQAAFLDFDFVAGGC
Chain of Protein kinase C theta type (Homo sapiens) (Q04759 whole entry, looked up): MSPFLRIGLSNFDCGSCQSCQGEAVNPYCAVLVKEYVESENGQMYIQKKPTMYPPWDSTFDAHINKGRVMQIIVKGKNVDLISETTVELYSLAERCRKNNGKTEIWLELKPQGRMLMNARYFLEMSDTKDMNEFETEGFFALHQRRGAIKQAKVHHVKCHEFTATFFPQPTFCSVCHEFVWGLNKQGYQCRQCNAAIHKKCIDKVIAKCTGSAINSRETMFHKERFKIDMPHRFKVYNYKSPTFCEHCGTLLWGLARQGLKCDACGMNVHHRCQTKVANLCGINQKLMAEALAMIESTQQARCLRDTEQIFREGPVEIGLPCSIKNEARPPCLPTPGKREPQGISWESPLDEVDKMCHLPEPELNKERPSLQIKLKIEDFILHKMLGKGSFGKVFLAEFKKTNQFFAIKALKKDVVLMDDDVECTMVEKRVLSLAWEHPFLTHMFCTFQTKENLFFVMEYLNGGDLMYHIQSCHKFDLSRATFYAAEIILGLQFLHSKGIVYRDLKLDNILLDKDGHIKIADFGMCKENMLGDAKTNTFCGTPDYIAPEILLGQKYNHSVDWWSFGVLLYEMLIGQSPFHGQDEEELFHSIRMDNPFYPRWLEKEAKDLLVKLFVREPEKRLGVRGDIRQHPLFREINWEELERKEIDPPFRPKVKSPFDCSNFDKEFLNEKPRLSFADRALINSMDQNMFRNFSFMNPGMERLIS

inhibition [1]: 0% | inhibition [2]: 2%
SMILES: CNC(=O)c1ccccc1Oc1nc(Nc2cc(OC)c(OC)c(OC)c2)ncc1Br

fold change (FC) [3]: 0 | inhibition [4]: 9% | fold change (FC) [5]: 0
SMILES: CC(C)[C@H](NC(=O)c1cc(-c2cnn3cc(-c4ccc(OCCN5CCCCC5)cc4)cnc23)cs1)C(F)(F)F

inhibition [6]: 0% | inhibition [7]: 0% | inhibition [8]: 2%
SMILES: O=C(N[C@@H](C1CC1)C(F)(F)F)c1cc(-c2cnn3cc(-c4ccc(F)cc4)cnc23)cs1
